Measured values reported in patent publication US6005099A, “Glucosamine disaccharides, method for their preparation, pharmaceutical composition comprising same, and their use” (priority 1993, dated 1999).
Entries after “also recorded” stand apart in the source; their conditions may differ.

Key:
[1] = system: peritoneal carcinomatosis (Pro b cells); assay: In vivo anti-tumor activity against peritoneal carcinomatosis in BDIX rats; settings: for Number of rats with carcinomatoses of class 0 / Number of rats with carcinomatoses of class 1 / Number of rats with carcinomatoses of class 2 / Number of rats with carcinomatoses of class 3 / Number of rats with carcinomatoses of class 4: 10 rats, 6 weeks; for Number of rats with carcinomatoses of class 0: class 0: no tumor nodules visible; for Number of rats with carcinomatoses of class 1: class 1: a few nodules less than 0.2 cm; for Number of rats with carcinomatoses of class 2: class 2: nodules too many to be counted, up to 0.5 cm; for Number of rats with carcinomatoses of class 3: class 3: tumors up to 1 cm; for Number of rats with carcinomatoses of class 4: class 4: cavity entirely invaded by tumors
Method: The in vivo biological activity of disaccharide A was investigated for anti-tumor activity against peritoneal carcinomatosis induced in BDIX rats. Pro b cells obtained according to the method of Martin (Martin, F. et al, International Journal of Cancer, Volume 32, pages 623-627 [1983]) were injected intraperitoneally in rat (10^6 cells per rat). After 10 days numerous solid nodules appear in the mesenterium in the milky spots and progressively invade the peritoneal cavity (see Lagadec, P. et al, Invasion and Metastasis, Volume 7, pages 83-95 [1987]). Hemorrhagic ascitis appeared after 4-5 weeks and all rats died within 8-12 weeks.
Immunotherapy started 14 days after injection of the tumoral Pro b cells. The treatment consisted of intraperitoneal injections of disaccharide A; doses 0.1, 0.3 and 0.8 mg/kg bodyweight. Disaccharide A was dissolved in an aqueous solution of 0.9% NaCl and 0.1% triethylamine. The rats received five injections once every 3.5 days. A control group was injected with the aqueous solution. Both groups comprised 10 rats.
6 Weeks after the injection of the tumoral cells autopsy was carried out. The extent of peritoneal carcinomatosis was evaluated blindly and the rats were classified in the order of increasing carcinomatosis.
The classification of the nodule size is as follows:
class 0: no tumor nodules visible;
class 1: a few nodules of size less than 0.2 cm;
class 2: nodules too many to be counted size up to 0.5 cm;
class 3: tumors in size up to 1 cm;
class 4: tumoral cavity entirely invaded by tumors, size a few cm.
The statistical significance of the anti-tumoral activity was calculated by the Kruskal-Wallis test (1) or (2) using variance analysis.

[2] = system: macrophages of C57BL/6 mice; assay: Prostaglandin E2 (PGE2) production in supernatants of macrophages, RIA; type: cell-based
Method: Bone marrow was collected from hip, femur and tibia of six week old male C57BL/6 mice.
(§1) After 7 days the mature macrophages were collected and resuspended in Dulbecco modified medium comprising 5% foetal calf serum to a concentration of 7×10^6 cells per ml. This cell suspension was mixed 1:1, (v/v) with samples diluted in the same medium and used in the biological tests performed in microplates with 70,000 cells/well (incubation at 37° C. for 22 hours, 100% humidity and 8% CO2).

[3] = system: macrophages of C57BL/6 mice; assay: Production of TNF-α in supernatants of macrophages, ELISA; type: cell-based
Source text: (§2) Bone marrow was collected from hip, femur and tibia of six week old male C57BL/6 mice. After homogenization of the marrow suspension in Dulbecco modified medium and centrifugation, the pellet was resuspended in Dulbecco modified medium and the cells were cultivated at a concentration of 4×10^5 cells per ml in the same medium supplemented with 30% supernatant of L-929 fibroblasts (a common source for colony stimulating factor 1 [CSF-1]) and 20% horse serum.
as §1
The concentration of TNF-α in supernatants of macrophages was determined by an ELISA test (Kit GENZYME, Factor-test mTNF-α).

NMRI mice = assay: Acute toxicity in NMRI mice; type: in vivo; settings: caudal vein, up to 100 mg/kg
Method: Disaccharide A was injected into the caudal vein of male and female NMRI mice (age 6-7 weeks).

protease in LAL [4] = assay: Endotoxicity, chromogenic LAL test; type: biochemical, Limulus polyphemus; settings: ng LPS per ng product, n = 1-10
Method: (§3) The endotoxicity and the biological activity of disaccharide A (example 1) and of disaccharide B (example 2) were determined and compared to that of lipopolysaccharide originating from Escherichia coli O111:B4 (Sigma, Product No. L3024), lipid A (Sigma, Product No. L5399; used as a starting material in example 4), and 3-O-deacylated lipid A originating from lipid A of Escherichia coli F583 (prepared as in the comparative example), but without purification by HPLC.
(§4) The endotoxicity was determined in the Limulus amoebocyte lysate (LAL) test. This test is based on the observation that endotoxins induce coagulation of the hemolymph of Limulus polyphemus.
(§5) The endotoxicity was also measured in the chromogenic test, in which the activation of a protease in LAL by LPS was measured using a chromogen (Ac-Ile-Glu-Ala-Arg-pNA; Bio Whittaker Kit No. 50-650U). The colour formation (liberation of pNA (p-nitroaniline)) was measured at 405 nm.
(§6) Samples were pre-incubated at 37° C. during 10 minutes and subsequently chromogen-comprising LAL was added. The time required for reaching an optical density of 0.2 at 405 nm was measured. The endotoxin activity was calculated in comparison to a reference curve obtained for LPS standards.
(§7) The results are expressed in table 3 as: ng LPS per ng product.

protease in LAL [5] = assay: Endotoxicity, chromogenic LAL test with 0.1 mg/ml bovine serum albumin; type: biochemical, Limulus polyphemus; settings: n=4 or 6
Method: as §5, §6
The endotoxicity of the disaccharides E, F and G was determined using the chromogenic LAL test (see infra). However, instead of using 1 mg/ml bovine serum albumin, 0.1 mg/ml has been used. The results (n=4 or 6) were obtained in two series of experiments and are shown hereafter.

[6] = system: macrophages of C57BL/6 mice; assay: Production of interleukin-1α (IL-1α) in supernatants of macrophages, ELISA; type: cell-based
Source text: as §2, §1
The concentration of IL-1α in the supernatants of macrophages was measured by an ELISA-test (Kit GENZYME, Intertest-1α).

[7] = system: Limulus amoebocyte lysate (LAL); assay: Endotoxicity, LAL gelification test; type: biochemical, Limulus polyphemus; settings: ng LPS per ng product, n = 2-12
Method: as §3, §4
In the gelification test serial dilutions of the compound to be tested were mixed with LAL 1:1, (v/v) (Haemachem Inc., sensitivity LAL 0.06 endotoxin units/ml), and the mixture was incubated for one hour at 37° C. Then gel formation was monitored by measuring the optical density at 405 nm. The last dilution which formed a gel was determined by inverting the reaction microplate. The endotoxin activity in the samples was determined by comparison with dilutions of a lipopolysaccharide standard (1 endotoxin unit=0.1 ng LPS).
as §7

[8] = highest concentration tested 500 μg/ml

CCCCCCCCCCCC(=O)O[C@H](CCCCCCCCCCC)CC(=O)N[C@H]1[C@H](OC[C@H]2O[C@H](OP(=O)(O)O)[C@H](NC(=O)C[C@H](O)CCCCCCCCCCC)[C@@H](O)[C@@H]2O)O[C@H](CO)[C@@H](OP(=O)(O)O)[C@@H]1O [disaccharide A, 2-Deoxy-6-O-[2-deoxy-2-[(R)-3-dodecanoyloxytetradecanoylamino]-4-O-phosphono-β-D-glucopyranosyl]-2-[(R)-3-hydroxytetradecanoylamino]-α-D-glucopyranosyl dihydrogenphosphate]
Ascitis volume, Average ([1]; 0.1 mg/kg i.p.): 7 ± 7 ml/rat | Ascitis volume, Limits ([1]; 0.1 mg/kg i.p.): 0-18 ml/rat | Number of rats with carcinomatoses of class 0 ([1]; 0.1 mg/kg i.p.): 0 | Number of rats with carcinomatoses of class 1 ([1]; 0.1 mg/kg i.p.): 2 | Number of rats with carcinomatoses of class 2 ([1]; 0.1 mg/kg i.p.): 0 | Number of rats with carcinomatoses of class 3 ([1]; 0.1 mg/kg i.p.): 4 | Number of rats with carcinomatoses of class 4 ([1]; 0.1 mg/kg i.p.): 4 | Ascitis volume, Average ([1]; 0.3 mg/kg i.p.): 2 ± 6 ml/rat | Ascitis volume, Limits ([1]; 0.3 mg/kg i.p.): 0-20 ml/rat | Number of rats with carcinomatoses of class 0 ([1]; 0.3 mg/kg i.p.): 2 | Number of rats with carcinomatoses of class 1 ([1]; 0.3 mg/kg i.p.): 3 | Number of rats with carcinomatoses of class 2 ([1]; 0.3 mg/kg i.p.): 2 | Number of rats with carcinomatoses of class 3 ([1]; 0.3 mg/kg i.p.): 2 | Number of rats with carcinomatoses of class 4 ([1]; 0.3 mg/kg i.p.): 1 | Ascitis volume, Average ([1]; 0.8 mg/kg i.p.): 0 ± 1 ml/rat | Ascitis volume, Limits ([1]; 0.8 mg/kg i.p.): 0-2 ml/rat | Number of rats with carcinomatoses of class 0 ([1]; 0.8 mg/kg i.p.): 1 | Number of rats with carcinomatoses of class 1 ([1]; 0.8 mg/kg i.p.): 6 | Number of rats with carcinomatoses of class 2 ([1]; 0.8 mg/kg i.p.): 1 | Number of rats with carcinomatoses of class 3 ([1]; 0.8 mg/kg i.p.): 1 | Number of rats with carcinomatoses of class 4 ([1]; 0.8 mg/kg i.p.): 1 | Anti-tumoral effect, in words ([1]; peritoneal carcinomatosis): dose-dependent anti-tumoral effect | PGE2 at highest concentration inducing an activity ([2]; 500 μg/ml, detection limit of the order of 80 pg/ml): 540 ± 65 pg/mL | PGE2 at lowest concentration inducing an activity ([2]; LPS 6.25, 3-O-deacylated lipid A 500, disaccharide A 16 μg/ml, detection limit of the order of 80 pg/ml): 80 ± 41 pg/mL | minimal effective concentration ([2]; Mus musculus, Macrophage, 22 h, detection limit of the order of 80 pg/ml, read-out: PGE2: Lowest concentration inducing an activity): 16 µg/mL | PGE2: Highest concentration inducing an activity ([2]; highest concentration used): 500 µg/mL | PGE2 production, in words ([2]; macrophages of C57BL/6 mice): significantly lower than for LPS; also recorded: more active than lipid A and 3-O-deacylated lipid A | TNF-α at concentration 500 μg/ml ([3]; 500 μg/ml): 530 ± 139 pg/mL | minimal effective concentration ([3]; Mus musculus, Macrophage, 22 h, detection limit in the order of 100 pg/ml, read-out: TNF-α: Minimum activity detected, concentration): 0.16 µg/mL | TNF α at minimum activity detected ([3]; at the concentration of minimum activity, LPS 0.006, lipid A 0.016, 3-O-deacylated lipid A 0.016, disaccharide A 0.16 μg/ml): 159 ± 43 pg/mL | TNF-α at highest concentration tested [3, 8]: 530 ± 139 pg/mL | TNF-α production, in words ([3]; macrophages of C57BL/6 mice): equally or more strongly than lipid A or 3-O-deacylated lipid A | Acute toxicity, deaths (NMRI mice): did not induce any death | Endotoxic activity in LAL, chromogen (protease in LAL [4]): 0.0014 ± 0.0013 ng/ng | Endotoxic activity in LAL (protease in LAL [5]): 0.000003 ± 0.000002 mg/mg | IL-1α at concentration 500 μg/ml ([6]; 500 μg/ml): 75 ± 45 pg/mL | minimal effective concentration ([6]; Mus musculus, Macrophage, 22 h, detection limit in the order of 15 pg/ml, read-out: IL-1α: Minimum activity detected, concentration): 16 µg/mL | IL-1α at minimum activity detected ([6]; at the concentration of minimum activity, LPS 1.56, lipid A 50, 3-O-deacylated lipid A 160, disaccharide A 16 μg/ml): 19 ± 11 pg/mL | IL-1α at highest concentration tested [6, 8]: 75 ± 45 pg/mL | IL-1α production, in words ([6]; macrophages of C57BL/6 mice, comparison partly at 500 μg/ml): not significantly different; also recorded: at least as strong as by lipid A and 3-O-deacylated lipid A | Endotoxic activity in LAL, gelification [7]: 0.003 ± 0.002 ng/ng
